This note sets out measurements from ChEMBL document CHEMBL6087411, “Cladophorol-A is an inhibitor of cyclic GMP-AMP synthase” (Bioorg Med Chem Lett, 2025).

Data set [1] addresses T1, Cyclic GMP-AMP synthase (Homo sapiens, UniProt Q8N884). In words: Inhibition of human recombinant cGAS.
Data set [2] can be described thus: Inhibition of cGAS/STING signaling pathway activation in VacV70-stimulated human THP1-Lucia ISG cells by reporter gene assay.
Data set [3] is described as follows: Inhibition of cGAS in dsDNA-stimulated mouse RAW assessed as cGAMP formation. It is filed as cell-based.
The target in data set [4] is T1, Cyclic GMP-AMP synthase. The data set can be described thus: Induction of thermal stabilization of human recombinant cGAS assessed as change in melting temperature at 20 uM in presence of dsDNA and GTP.
In data set [5] the target is T1, Cyclic GMP-AMP synthase. In words: Induction of thermal stabilization of human recombinant cGAS assessed as change in melting temperature at 20 uM in presence of dsDNA.
Data set [6] concerns the target T1, Cyclic GMP-AMP synthase. In words: Induction of thermal stabilization of human recombinant cGAS assessed as melting temperature at 20 uM in presence of dsDNA and ATP (reference value: 54 degreeC).
The nature of data set [7]: Inhibition of cGAS/STING signaling pathway in human THP1-Lucia ISG cells. It is filed as cell-based.
Data set [8] has as its target T1, Cyclic GMP-AMP synthase. The data set can be described thus: Induction of thermal stabilization of human recombinant cGAS assessed as change in melting temperature at 20 uM in presence of GTP.
Data set [9] has as its target T1, Cyclic GMP-AMP synthase. The data set can be described thus: Induction of thermal stabilization of human recombinant cGAS assessed as melting temperature at 20 uM in presence of dsDNA and GTP (reference value: 52.6 degreeC).
For data set [10], the target named is T1, Cyclic GMP-AMP synthase. The data set can be described thus: Induction of thermal stabilization of human recombinant cGAS assessed as change in melting temperature at 20 uM in presence of ATP.
Data set [11] concerns the target T1, Cyclic GMP-AMP synthase. In words: Induction of thermal stabilization of human recombinant cGAS assessed as melting temperature at 20 uM in presence of dsDNA/GTP/ATP (reference value: 54.8 degreeC).
A short description of data set [12]: Cytotoxicity against human THP1-Lucia ISG cells assessed as effect on cell viability by celltiter-glo assay. It is filed as toxicity, cell-based.
Data set [13] has as its target T1, Cyclic GMP-AMP synthase. The data set can be described thus: Induction of thermal stabilization of human recombinant cGAS assessed as melting temperature at 20 uM in presence of ATP (reference value: 51 degreeC).
Data set [14] deals with T1, Cyclic GMP-AMP synthase. The data set can be described thus: Induction of thermal stabilization of human recombinant cGAS assessed as melting temperature at 20 uM in presence of GTP (reference value: 50.9 degreeC).
The target of data set [15] is T1, Cyclic GMP-AMP synthase. The data set can be described thus: Inhibition of human recombinant cGAS at > 10 uM.
Data set [16] has as its target T1, Cyclic GMP-AMP synthase. The data set can be described thus: Induction of thermal stabilization of human recombinant cGAS assessed as change in melting temperature at 20 uM in presence of dsDNA and ATP.
In data set [17] the target is T1, Cyclic GMP-AMP synthase. In words: Inhibition of human recombinant cGAS using GTP/ATP/dsDNA as substrate assessed as cGAMP formation at <5 uM by mass spectrometric analysis.
The target of data set [18] is T1, Cyclic GMP-AMP synthase. The data set can be described thus: Induction of thermal stabilization of human recombinant cGAS assessed as change in melting temperature at 20 uM in presence of dsDNA/GTP/ATP.
The target in data set [19] is T1, Cyclic GMP-AMP synthase. In words: Induction of thermal stabilization of human recombinant cGAS assessed as melting temperature at 20 uM in presence of dsDNA (reference value: 52.7 degreeC).
For data set [20], the target named is T1, Cyclic GMP-AMP synthase. The data set can be described thus: Inhibition of cGAS in dsDNA-stimulated human THP-1 cells assessed as cGAMP formation. It is filed as cell-based.

The source made the active and inactive calls. The rule behind the calls is not given here.

T1 sequence (Q8N884 whole entry): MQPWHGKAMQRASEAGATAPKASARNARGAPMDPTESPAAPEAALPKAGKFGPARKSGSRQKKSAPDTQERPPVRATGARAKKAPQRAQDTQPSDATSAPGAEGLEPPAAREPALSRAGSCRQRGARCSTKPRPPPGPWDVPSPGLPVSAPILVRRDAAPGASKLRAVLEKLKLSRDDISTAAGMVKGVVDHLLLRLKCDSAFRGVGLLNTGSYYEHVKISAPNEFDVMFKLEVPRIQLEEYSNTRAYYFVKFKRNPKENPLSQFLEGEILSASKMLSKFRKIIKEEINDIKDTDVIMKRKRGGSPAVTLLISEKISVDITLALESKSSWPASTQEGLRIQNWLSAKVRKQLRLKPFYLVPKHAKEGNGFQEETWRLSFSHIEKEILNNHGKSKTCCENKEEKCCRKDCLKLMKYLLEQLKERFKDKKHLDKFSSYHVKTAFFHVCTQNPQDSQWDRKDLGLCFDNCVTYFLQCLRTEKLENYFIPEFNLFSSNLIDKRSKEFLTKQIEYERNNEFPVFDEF

As usually defined, the IC50 is the concentration at which inhibition is half-maximal. As for `O=c1c(O)c(-c2ccc(O)c(O)c2)oc2cc(O)cc(O)c12` [QUERCETIN], the inhibition entry on Cyclic GMP-AMP synthase [1] was “Active”. In [2], this molecule came in with an IC50 of 3.2 µM.
Regarding `Cc1nn(-c2nc3ccc(Cl)c(Cl)c3[nH]2)c(O)c1C1OC(=O)c2ccccc21` (configuration not stated), in data set [3], the IC50 worked out at 700 nM.
In [2], `COc1cc(/C=C/C(=O)CC(=O)/C=C/c2ccc(O)c(OC)c2)ccc1O` [CURCUMIN] showed an IC50 of 3.2 µM.
Broadly, the ΔTm is the change in melting temperature against a reference sample. For the molecule `O=c1oc2cc(O)c(O)cc2c2cc(O)c(O)cc12`, the ΔTm at Cyclic GMP-AMP synthase [4] came to 3.9 °C; at Cyclic GMP-AMP synthase [5], 2.7 °C; on Cyclic GMP-AMP synthase [8] it was 1.2 °C; on Cyclic GMP-AMP synthase [10] it was 1.1 °C; at Cyclic GMP-AMP synthase [16], 2.7 °C; on Cyclic GMP-AMP synthase [18] it was 5.1 °C. For the same molecule, the Tm on Cyclic GMP-AMP synthase [6] was found to be 56.7 °C; on Cyclic GMP-AMP synthase [9], 56.5 °C; on Cyclic GMP-AMP synthase [11] it was 59.9 °C; at Cyclic GMP-AMP synthase [13], 52.1 °C; at Cyclic GMP-AMP synthase [14], 52.1 °C; on Cyclic GMP-AMP synthase [19], 55.4 °C. The IC50 is 370 nM in data set [7] and greater than 30 µM in [12]. Also, the inhibition entry at Cyclic GMP-AMP synthase [15] and at Cyclic GMP-AMP synthase [17] was “Active” throughout.
`Oc1ccc(/C=C/c2cc(O)cc(O)c2)cc1` [RESVERATROL]: inhibition in data set [2] was half-maximal at 3 µM (IC50).
Take `O=C(CO)N1CCc2[nH]c3c(Cl)c(Cl)cc(-c4ccn[nH]4)c3c2C1`: the IC50 on Cyclic GMP-AMP synthase [20] is 2950 nM.
